How the values were obtained:
[1] = tested on: C4-2 cells; assay: Cell proliferation assay (CellTiter-Glo, 5-day exposure), C4-2; format: cell-based; conditions: C4-2, 1000 cells/well, Th-227 labelled at 375 kBq/nmol, mean of 1 to 6 experiments
Procedure, shortened: (§1)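 Thorium-227-labelled PSMA small-molecule ligands were tested on prostate cancer lines seeded at 4000 cells/well (VCaP) or 1000 cells/well (22Rv1, C4-2, LNCaP) and incubated overnight at 37 °C, 5% CO2. Viability was read by CellTiter-Glo luminescence at treatment start (sister plates) and after 5-day compound exposure.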

[2] = tested on: LNCaP human prostate cancer cells; assay: LNCaP xenograft efficacy study (T/C tumor area); format: in vivo, SCID mice
Procedure, shortened: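 SCID mice with testosterone pellet bearing s.c. flank LNCaP xenografts (5×10^6 cells in Matrigel) were treated i.v. with a defined radioactive dose once tumors reached 35-50 mm^2 (n=10/group). Tumor area (caliper, longest diameter × perpendicular) measured 2-3× weekly; T/C ratio calculated from tumor areas when vehicle group closed.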

[3] = tested on: VCaP cells; assay: Cell proliferation assay (CellTiter-Glo, 5-day exposure), VCaP; format: cell-based; conditions: 4000 cells/well, Th-227 labelled at 375 kBq/nmol, mean of 1 to 6 experiments
Procedure, shortened: as §1

[4] = tested on: 22Rv1 cells; assay: Cell proliferation assay (CellTiter-Glo, 5-day exposure), 22Rv1; format: cell-based; conditions: 22Rv1, 1000 cells/well, Th-227 labelled at 375 kBq/nmol, mean of 1 to 6 experiments
Procedure, shortened: as §1

[5] = Biodistribution study in LNCaP tumor-bearing mice (Th227 counted in organs); format: in vivo, SCID mice; conditions: 500 kBq/kg; for Th-227 in Blood / Th-227 in Femur bone / Th-227 in Kidneys / Th-227 in Liver / Th-227 in Spleen / Th-227 in Tumor / Th-227 in salivary glands: study b3004
Protocol: SCID mice were randomly assigned to experimental groups, ten animals per group (efficacy) or n=3-5 per time point of biodistribution study. At the initiation of the study, a testosterone pellet was subcutaneously transplanted, the animals were shaved, tattooed and each cage was labeled with the cage number, study number and number of animals per cage.
LNCaP human prostate cancer cells were cultured as described according to the supplier's protocols. Cells were harvested for transplantation in a subconfluent (70%) state. Animals were injected with 5×10^6 LNCaP cells suspended in 100% Matrigel subcutaneously into the flank of the mice.
Biodistribution study: When tumors reached a predetermined size in mice of ˜50 mm^2 animals were randomized into groups (n=3 animals/time point) and the radioactive compound was once applied intravenously. The i.v. application volume was 100 μl/mice.
At the predetermined time point, n=3 animals were sacrificed, the organs removed, weight and measured in a Germanium detector to count the Th227 in the sample.

[6] = comparison of % injected dose per gram tissue

Cc1cc(C(=O)NCCN(CCCN(CCNC(=O)c2cc(C)n(CC(=O)O)c(=O)c2[O-])CCNC(=O)c2cc(C)n(CC(=O)NCC3CCC(C(=O)NC(Cc4ccc5ccccc5c4)C(=O)NCCCCC(NC(=O)NC(CCC(=O)O)C(=O)O)C(=O)O)CC3)c(=O)c2[O-])CCNC(=O)c2cc(C)n(CC(=O)NCC3CCC(C(=O)NC(Cc4ccc5ccccc5c4)C(=O)NCCCCC(NC(=O)NC(CCC(=O)O)C(=O)O)C(=O)O)CC3)c(=O)c2[O-])c([O-])c(=O)n1CC(=O)O.[227Th+4] (stereo not shown) [1-C dimer-227Th]
Proliferation assay on cancer cell lines by TTCs Default Pivot #3 IC50 [kBq/mL] C4-2 1000cells 375kBq/nmol (mean) [1]: 1.12 kBq/mL | T/Carea ([2]; Example II, day 33 after start of therapy, 375 kBq/kg weekly for 5 weeks): 0.60 | T/Carea ([2]; Example II, day 33 after start of therapy, 750 kBq/kg weekly for 5 weeks): 0.34 | T/Carea ([2]; Example IV, day 36 after start of therapy, once 1 MBq/kg): 0.48 | Proliferation assay on cancer cell lines by TTCs Default Pivot #3 IC50 [kBq/mL] VCap 4000cells 375kBq/nmol (mean) [3]: 1.55 kBq/mL | Proliferation assay on cancer cell lines by TTCs Default Pivot #3 IC50 [kBq/mL] 22Rv1 1000cells 375kBq/nmol (mean) [4]: 1.04 kBq/mL | Accumulation in the tumor (in words) [5, 6]: much higher accumulation in the tumor | Background in blood, liver and spleen (in words) [5, 6]: lower background compared to 1-F-227Th | Th-227 in Blood ([5]; 1 h): 0.90 % ID Th-227/g organ | Th-227 in Femur bone ([5]; 1 h): 1.39 % ID Th-227/g organ | Th-227 in Kidneys ([5]; 1 h): 120.74 % ID Th-227/g organ | Th-227 in Liver ([5]; 1 h): 1.49 % ID Th-227/g organ | Th-227 in Spleen ([5]; 1 h): 2.33 % ID Th-227/g organ | Th-227 in Tumor ([5]; 1 h): 19.99 % ID Th-227/g organ | Th-227 in salivary glands ([5]; 1 h): 5.02 % ID Th-227/g organ | Th-227 in Blood ([5]; 24 h): 0.07 % ID Th-227/g organ | Th-227 in Femur bone ([5]; 24 h): 1.65 % ID Th-227/g organ | Th-227 in Kidneys ([5]; 24 h): 102.45 % ID Th-227/g organ | Th-227 in Liver ([5]; 24 h): 1.34 % ID Th-227/g organ | Th-227 in Spleen ([5]; 24 h): 1.50 % ID Th-227/g organ | Th-227 in Tumor ([5]; 24 h): 14.49 % ID Th-227/g organ | Th-227 in salivary glands ([5]; 24 h): 1.39 % ID Th-227/g organ | Th-227 in Blood ([5]; 72 h): 0.01 % ID Th-227/g organ | Th-227 in Femur bone ([5]; 72 h): 1.25 % ID Th-227/g organ | Th-227 in Kidneys ([5]; 72 h): 2.10 % ID Th-227/g organ | Th-227 in Liver ([5]; 72 h): 1.02 % ID Th-227/g organ | Th-227 in Spleen ([5]; 72 h): 0.76 % ID Th-227/g organ | Th-227 in Tumor ([5]; 72 h): 8.99 % ID Th-227/g organ | Th-227 in salivary glands ([5]; 72 h): 0.77 % ID Th-227/g organ | Th-227 in Blood ([5]; 168 h): 0.01 % ID Th-227/g organ | Th-227 in Femur bone ([5]; 168 h): 1.76 % ID Th-227/g organ | Th-227 in Kidneys ([5]; 168 h): 17.42 % ID Th-227/g organ | Th-227 in Liver ([5]; 168 h): 1.28 % ID Th-227/g organ | Th-227 in Spleen ([5]; 168 h): 1.24 % ID Th-227/g organ | Th-227 in Tumor ([5]; 168 h): 8.68 % ID Th-227/g organ | Th-227 in salivary glands ([5]; 168 h): 1.17 % ID Th-227/g organ | Th-227 in Blood ([5]; 336 h): 0.00 % ID Th-227/g organ | Th-227 in Femur bone ([5]; 336 h): 1.55 % ID Th-227/g organ | Th-227 in Kidneys ([5]; 336 h): 5.40 % ID Th-227/g organ | Th-227 in Liver ([5]; 336 h): 1.06 % ID Th-227/g organ | Th-227 in Spleen ([5]; 336 h): 0.73 % ID Th-227/g organ | Th-227 in Tumor ([5]; 336 h): 2.85 % ID Th-227/g organ | Th-227 in salivary glands ([5]; 336 h): 1.20 % ID Th-227/g organ
